This is an account of results in US20240174690A1, “ANNULATED 2-AMINO-3-CYANO THIOPHENES AND DERIVATIVES FOR THE TREATMENT OF CANCER” (BOEHRINGER INGELHEIM INTERNATIONAL GMBH, priority 2021, published 2024).

For orientation: IC50 means the point on the concentration scale where inhibition reaches its midpoint.

Read-outs that look alike come from different tables or passages of the source.

One assay relates to MKN1 cells. Nature of the assay: MKN1 CTG proliferation assay (120 h) (gastric cancer, wt amplified). The assay is classed as cell-based. Conditions: Homo sapiens. In short, it runs like this: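 MKN1 gastric cancer cells (200–500 per well, RPMI + 10% FCS) given a logarithmic compound dose series and incubated 120 h. Viability by CellTiter-Glo luminescence as percent of DMSO controls. IC50 by four-parameter non-linear regression.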

The target in a further assay is KRAS (WT)::SOS1 (Homo sapiens (Human), UniProt P01116, C118S). The experiment in a line: KRAS::SOS1 AlphaScreen binding assay, KRAS WT. In short, it runs like this:
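KRAS 1-169 (biotinylated avi-tag) with GST-SOS1 564-1049 and 10 µM GDP in PBS/0.1% BSA/0.05% Tween 20: WT and G13D 10 nM each with 10 nM SOS1; G12D 10 nM and G12C 7.5 nM with 5 nM SOS1. After 30 min, glutathione acceptor/streptavidin donor beads were added for 60 min at RT in the dark, then AlphaScreen read; 4-parameter IC50.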
A general note: Bead proximity is the source of the signal in Alpha formats.

Another assay relates to GP2D cells. The experiment in a line: GP2D proliferation assay (120 h) (colorectal cancer, G12D). The assay is classed as cell-based. In short, it runs like this: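 500 cells/well in DMEM + GlutaMAX + 10% FCS, exposed to a logarithmic compound dose series (DMSO-normalized) for 120 h. Viability read by CellTiter-Glo luminescence as percent of DMSO control, with an untreated T0 read at dosing; IC50 from four-parameter non-linear regression.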

The mark [1] stands for this setting: MKN-1, assay 2, CTG 120 h, read-out: MKN1 (assay 2) IC50.
[2] abbreviates: MKN-1, assay 1, CTG 120 h, read-out: MKN1 (assay 1) IC50.
[3] abbreviates: MKN-1, assay 3, CTG 120 h, read-out: MKN1 (assay 3) IC50.

Chain of KRAS (WT)::SOS1 (P01116 other isoform, or with tags, fused parts or gaps C118S): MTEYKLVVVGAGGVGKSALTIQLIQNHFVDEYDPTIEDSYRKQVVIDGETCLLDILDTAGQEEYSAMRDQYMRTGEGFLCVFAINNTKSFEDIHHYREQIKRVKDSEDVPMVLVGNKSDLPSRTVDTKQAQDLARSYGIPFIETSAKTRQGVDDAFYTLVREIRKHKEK

For `C[C@H](Oc1cc(N2CCNC3(CC3)C2)nc(-c2onc3c2CCC[C@@]32CCCc3sc(N)c(C#N)c32)n1)[C@@H]1C[C@@H](F)CN1C` [I-45], the figures for the half-inhibitory concentration (IC50) in the assay on MKN1 cells (setting [1]), on KRAS (WT)::SOS1 and with GP2D cells were 0.51 µM, 0.006 µM and 0.002 µM, respectively.
`C[C@H](Oc1cc(-n2ccc(C(N)=O)n2)nc(-c2noc3c2CCC[C@@]32CCCc3sc(N)c(C#N)c32)n1)[C@@H]1CCCN1C` [II-21]: the IC50 came out at 0.02 µM with MKN1 cells (setting [2]); 0.027 µM in the assay on MKN1 cells (setting [1]); 0.024 µM in the assay with MKN1 cells (setting [3]); 0.003 µM on KRAS (WT)::SOS1; 0.057 µM in the assay with GP2D cells.
On to `C[C@H](Oc1cc(N2CC3CCC(C2)N3)nc(-c2noc3c2CCC[C@@]32CCCc3sc(N)c(C#N)c32)n1)[C@@H]1CCCN1C` [II-34], for which the IC50 in the assay on MKN1 cells (setting [3]) was determined as 0.453 µM; at KRAS (WT)::SOS1, 0.008 µM; with GP2D cells, 0.049 µM.
Taken in the same sequence, the figures for `C[C@H](Oc1cc([C@@H]2CCOC2)nc(-c2onc3c2CCC[C@@]32CCCc3sc(N)c(C#N)c32)n1)[C@@H]1CCCN1C` [I-22] were 0.068 µM, 0.003 µM and 0.027 µM.
Taken in the same sequence, the figures for `C[C@H](Oc1cc(N2CC[C@H](N3CCCCC3)C2)nc(-c2noc3c2CCC[C@@]32CCCc3sc(N)c(C#N)c32)n1)[C@@H]1CCCN1C` [II-12] were 0.46 µM, 0.015 µM and 0.009 µM.
On to `C[C@H](Oc1cc(N2CCNC3(COC3)C2)nc(-c2onc3c2CCC[C@@]32CCCc3sc(N)c(C#N)c32)n1)[C@@H]1CCCN1C` [I-4], for which the concentration for half-maximal inhibition (IC50) amounted to 0.075 µM with MKN1 cells (setting [3]), 0.003 µM on KRAS (WT)::SOS1 and 0.001 µM with GP2D cells.
On to `C[C@H](Oc1cc(-c2ccn(C3COC3)n2)nc(-c2onc3c2CCC[C@@]32CCCc3sc(N)c(C#N)c32)n1)[C@@H]1CCCN1C` [I-34], for which the IC50 turned out to be 0.693 µM in the assay with MKN1 cells (setting [3]), 0.004 µM at KRAS (WT)::SOS1 and 0.872 µM in the assay on GP2D cells.
Turning to `C[C@H](Oc1cc(N2CC[C@H](N(C)C)C2)nc(-c2noc3c2CCC[C@@]32CCCc3sc(N)c(C#N)c32)n1)[C@@H]1C[C@@H](F)CN1C` [II-15], the 50% inhibitory concentration (IC50) at KRAS (WT)::SOS1 was determined as 0.011 µM; in the assay on GP2D cells, 0.009 µM.
In the case of `C[C@H](Oc1cc(N2C[C@H](C)NC3(CC3)C2)nc(-c2noc3c2CCC[C@@]32CCCc3sc(N)c(C#N)c32)n1)[C@@H]1C[C@@H](F)CN1C` [II-18], the 50% inhibitory concentration (IC50) amounted to 0.279 µM with MKN1 cells (setting [1]), 0.006 µM at KRAS (WT)::SOS1 and 0.002 µM with GP2D cells.
Turning to `C[C@H](Oc1cc(N2CCN(C)C3(CC3)C2)nc(-c2onc3c2CCC[C@@]32CCCc3sc(N)c(C#N)c32)n1)[C@@H]1C[C@@H](F)CN1C` [I-39], the figures for the half-maximal inhibitory concentration (IC50) in the assay with MKN1 cells (setting [1]), on KRAS (WT)::SOS1 and with GP2D cells were 0.621 µM, 0.011 µM and 0.017 µM, respectively.
Turning to `C[C@@H]1CN(c2cc(O[C@@H](C)[C@@H]3C[C@@H](F)CN3C)nc(-c3noc4c3CCC[C@@]43CCCc4sc(N)c(C#N)c43)n2)CC2(CC2)N1` [II-17], the IC50 on KRAS (WT)::SOS1 is 0.005 µM; in the assay with GP2D cells, 0.006 µM.
Regarding `CNC(=O)c1ccn(-c2cc(O[C@@H](C)[C@@H]3CCCN3C)nc(-c3noc4c3CCC[C@@]43CCCc4sc(N)c(C#N)c43)n2)n1` [II-20], the figures for the IC50 in the assay with MKN1 cells (setting [2]), on KRAS (WT)::SOS1 and in the assay on GP2D cells were 0.024 µM, 0.004 µM and 0.057 µM, respectively.
